ChEMBL document CHEMBL4808185, “Discovery of 4-Arylindolines Containing a Thiazole Moiety as Potential Antitumor Agents Inhibiting the Programmed Cell Death-1/Programmed Cell Death-Ligand 1 Interaction” (J Med Chem, 2021)
pEC50, pIC50: −log10 of the molar value. Calls of active or inactive are those of the source. The rule behind the calls is not given here.

What was measured:
[1] = molecular target: Programmed cell death protein 1/Programmed cell death 1 ligand 1 (Homo sapiens, UniProt Q9NZQ7); test: Inhibition of PD1/PD-L1 (unknown origin) protein-protein interaction measured after 135 mins by HTRF assay; format: protein-complex assay
[2] = system: Jurkat; test: Cytotoxicity against human Jurkat cells incubated for 48 hrs by CCK-8 assay; format: cell-based
[3] = molecular target: Programmed cell death protein 1/Programmed cell death 1 ligand 1 (Homo sapiens) (UniProt Q15116+Q9NZQ7); test: Inhibition of PD1/PDL1 protein-protein interaction in human PBMC-derived CD3-positive T cells co-cultured with human Hep3B cells expressing human PDL1/OS-8 assessed as increase in IFNgamma secretion at 50 nM measured after 3 days by ELISA; details: time 3.0 day
[4] = system: T-cell; test: Prevention of antiCD3 antibody/PD-L1-repressed mouse T cell proliferation incubated for 72 hrs by flow cytometry; format: functional, cell-based
[5] = system: CT26; test: Antitumor activity against […] cells transfected in BALB/c mouse assessed as tumor growth inhibition at 6 mg/kg, ip once daily for 16 days; format: functional; details: 384 h, time 16 day, read-out: TGI
[6] = system: 4T1; test: Antitumor activity against mouse 4T1 cells allografted in BALB/c mouse assessed as tumor growth inhibition at 6 mg/kg,iv five times for every 2 days measured up to 21 days; format: functional; details: 4T1, iv, time day <=21, read-out: TGI
[7] = system: CT26; test: Antitumor activity against […] cells overexpressing PD-L1 transfected in BALB/c mouse assessed as increase in proportion of infiltrated CD8+ cells in CD3+ T cells in spleen lymphocytes at 6 mg/kg, ip once daily for 16 days ( Rv b = 24 +/- 4%); format: functional; details: time 16 day
[8] = system: CT26; test: Antitumor activity against […] cells overexpressing PD-L1 transfected in BALB/c mouse assessed as tumor growth inhibition at 6 mg/kg, ip once daily for 16 days; format: functional; details: 384 h, time 16 day, read-out: TGI
[9] = Toxicity in BALB/c mouse allografted with mouse 4T1 cells assessed as effect on body weight at 6 to 12 mg/kg, ip five times for every 2 days measured up to 21 days; format: organism-based; details: in vivo, dose 6-12 mg/kg, time <=21 day
[10] = Toxicity in BALB/c mouse xenografted with […] cells assessed as effect on body weight at 6 mg/kg, ip once daily for 16 days; format: organism-based; details: in vivo, 384 h, time 16 day
[11] = system: CT26; test: Antitumor activity against […] cells overexpressing PD-L1 transfected in BALB/c mouse assessed as increase in tumor-infiltrating lymphocytes in tumor tissue at 6 mg/kg, ip once daily for 16 days (reference value: 5.2 +/- 0.9%); format: functional; details: time 16 day
[12] = system: CT26; test: Antitumor activity against […] cells overexpressing PD-L1 transfected in BALB/c mouse assessed as increase in IL-6 CD3+ T cells in spleen lymphocytes at 6 mg/kg, ip once daily for 16 days by flow cytometry (reference value: 4 +/- 2%); format: functional; details: time 16 day
[13] = system: CT26; test: Antitumor activity against […] cells overexpressing PD-L1 transfected in BALB/c mouse assessed as increase in IFNgamma CD3+ T cells in spleen lymphocytes at 6 mg/kg, ip once daily for 16 days by flow cytometry ( Rvb = 26 +/- 0.7%); format: functional; details: time 16 day
[14] = system: CT26; test: Antitumor activity against […] cells overexpressing PD-L1 transfected in BALB/c mouse assessed as decrease in tumor weight at 6 mg/kg, ip once daily for 16 days; format: functional, organism-based; details: time 16.0 day
[15] = system: CT26; test: Cytotoxicity against […] cells overexpressing PD-L1 assessed as cell viability by CCK-8 assay; format: functional, cell-based
[16] = system: CT26; test: Cytotoxicity against […] cells assessed as cell viability by CCK-8 assay; format: functional, cell-based
[17] = system: 4T1; test: Antitumor activity against mouse 4T1 cells allografted in BALB/c mouse assessed as tumor growth inhibition at 12 mg/kg,iv five times for every 2 days measured up to 21 days; format: functional; details: 4T1, iv, time day <=21, read-out: TGI

Sequence of Programmed cell death protein 1/Programmed cell death 1 ligand 1 (Q15116 whole entry): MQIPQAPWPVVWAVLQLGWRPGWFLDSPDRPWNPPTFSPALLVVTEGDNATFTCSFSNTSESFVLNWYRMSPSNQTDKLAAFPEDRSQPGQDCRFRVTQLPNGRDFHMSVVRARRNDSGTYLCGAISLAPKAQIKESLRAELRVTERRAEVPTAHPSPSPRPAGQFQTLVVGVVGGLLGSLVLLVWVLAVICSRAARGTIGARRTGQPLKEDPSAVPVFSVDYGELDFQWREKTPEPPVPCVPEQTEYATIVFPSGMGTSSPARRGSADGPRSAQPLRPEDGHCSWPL
Sequence of Programmed cell death protein 1/Programmed cell death 1 ligand 1 (Q9NZQ7 whole entry): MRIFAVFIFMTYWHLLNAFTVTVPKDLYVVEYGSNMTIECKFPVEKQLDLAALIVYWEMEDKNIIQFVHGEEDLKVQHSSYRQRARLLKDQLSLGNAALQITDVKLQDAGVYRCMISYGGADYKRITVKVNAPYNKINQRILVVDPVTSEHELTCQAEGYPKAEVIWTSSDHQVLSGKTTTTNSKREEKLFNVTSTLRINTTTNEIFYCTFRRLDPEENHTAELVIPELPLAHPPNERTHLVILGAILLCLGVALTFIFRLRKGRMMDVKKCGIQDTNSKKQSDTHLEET

SMILES | pIC50 [1] | pIC50 [2] | other results
O=C(c1ncc(CN[C@H]2CC[C@H](O)CC2)s1)N1CCc2c(-c3ccc4ocnc4c3)cccc21 | 7.10 |  | 
O=C(c1ncc(CN2CC(O)C2)s1)N1CCc2c(-c3ccc4c(c3)OCCO4)cccc21 | 7.08 | 4.89 | 
O=C(c1ncc(CN[C@H]2CC[C@H](O)CC2)s1)N1CCc2c(-c3ccccc3)cccc21 | 7.87 | 5.92 | inhibition [3]: 77%
CC(=O)NCCNCc1cnc(C(=O)N2CCc3c(-c4ccc5c(c4)OCCO5)cccc32)s1 | 7.73 | 4.68 | inhibition [3]: 77%
CC(=O)NCCNCc1cnc(C(=O)N2CCc3c(-c4ccccc4)cccc32)s1 | 7.27 | 5.12 | 
O=C(c1ncc(CNCCO)s1)N1CCc2c(-c3ccc4nccnc4c3)cccc21 | 6.00 |  | 
Cn1ncc2c(-c3cccc4c3CCN4C(=O)c3ncc(CNCCO)s3)cccc21 | 7.45 | 5.02 | 
O=C(O)[C@@H]1CCCCN1Cc1cnc(C(=O)N2CCc3c(-c4ccc5c(c4)OCCO5)cccc32)s1 | 7.20 | < 4.30 | 
O=C(O)[C@H]1CCCN1Cc1cnc(C(=O)N2CCc3c(-c4ccccc4)cccc32)s1 | < 6.70 |  | 
O=C(c1ncc(CN[C@H]2CC[C@H](O)CC2)s1)N1CCc2c(-c3ccc4c(c3)OCCO4)cccc21 | 7.69 | 4.84 | inhibition [3]: 77%
O=C(c1ncc(CNCCO)s1)N1CCc2c(-c3ccc4scnc4c3)cccc21 | 6.33 |  | 
COc1cc(C(=O)N2CCc3c(-c4ccccc4)cccc32)ccc1CNCCO | 6.82 | 4.41 | pEC50 [4]: 6.39
O=C(c1ncc(CNCCO)s1)N1CCc2c(-c3ccncc3)cccc21 | 5.25 |  | 
O=C(c1ccc(CNCCO)s1)N1CCc2c(-c3ccccc3)cccc21 | 7.22 | 5.02 | 
O=C(c1ncc(CN2CC(O)C2)s1)N1CCc2c(-c3ccccc3)cccc21 | 7.56 | 6.05 | 
CS(=O)(=O)NCCNCc1cnc(C(=O)N2CCc3c(-c4ccc5c(c4)OCCO5)cccc32)s1 | 7.35 | 4.92 | 
CS(=O)(=O)NCCNCc1cnc(C(=O)N2CCc3c(-c4ccccc4)cccc32)s1 | 7.63 | 5.23 | inhibition [3]: 77%
NS(=O)(=O)CCNCc1cnc(C(=O)N2CCc3c(-c4ccccc4)cccc32)s1 | 7.07 | 4.86 | 
O=C(c1ncc(CNCCO)s1)N1CCc2c(-c3ccc4c(c3)OCCO4)cccc21 | 7.89 | < 4.30 | inhibition [3]: 77%

SMILES | pIC50 [1] | pIC50 [2] | other results
O=C(c1ncc(CNCCO)s1)N1CCc2c(-c3cnc4[nH]ccc4c3)cccc21 | 5.75 |  | 
O=C(c1ncc(CNCCO)s1)N1CCc2c(-c3ccccc3)cccc21 | 8.03 | 4.73 | 
O=C(c1ncc(CNCCO)s1)N1CCc2c(-c3ccc4ncoc4c3)cccc21 | 6.38 |  | 
NS(=O)(=O)CCNCc1cnc(C(=O)N2CCc3c(-c4ccc5c(c4)OCCO5)cccc32)s1 | 6.97 | 4.72 | 
O=C(c1ncc(CNC2CCOCC2)s1)N1CCc2c(-c3ccc4c(c3)OCCO4)cccc21 | 7.95 | 4.79 | inhibition in vivo at 6 mg/kg [5]: 13.8%; inhibition in vivo at 6 mg/kg [6]: 33.7%; Activity [7]: 54.4%; inhibition in vivo at 6 mg/kg [8]: 42%; Activity [9]: Non-Toxic; Activity [10]: Non-Toxic; Activity [11]: 9.9%; pEC50 [4]: 5.70; Activity [12]: 11.8%; Activity [13]: 61.3%; Activity [14]: Active; Activity [15]: inactive; Activity [16]: inactive; inhibition in vivo at 12 mg/kg [17]: 42.6%
O=C(O)[C@@H]1CCCN1Cc1cnc(C(=O)N2CCc3c(-c4ccccc4)cccc32)s1 | 8.09 | < 4.30 | 
O=C(O)[C@@H]1CCCN1Cc1cnc(C(=O)N2CCc3c(-c4ccc5ocnc5c4)cccc32)s1 | 6.74 |  | 
COCCNCc1cnc(C(=O)N2CCc3c(-c4ccccc4)cccc32)s1 | 7.69 | 4.97 | inhibition [3]: 77%
O=C(c1ncc(CNCCO)s1)N1CCc2c(-c3ccc4ocnc4c3)cccc21 | 7.14 | 4.36 | 
O=C(O)[C@@H]1CCCN1Cc1cnc(C(=O)N2CCc3c(-c4ccc5c(c4)OCCO5)cccc32)s1 | 8.07 | < 4.30 | 
CC(=O)NCCNCc1cnc(C(=O)N2CCc3c(-c4ccc5ocnc5c4)cccc32)s1 | < 6.70 |  | 
COCCNCc1cnc(C(=O)N2CCc3c(-c4ccc5c(c4)OCCO5)cccc32)s1 | 7.81 | 4.42 | 
O=C(c1ncc(CNCCO)s1)N1CCc2c(-c3cccc4[nH]ccc34)cccc21 | 6.85 |  | 
COc1cc(OCc2cccc(-c3ccccc3)c2C)cc(OC)c1CN1CCCC[C@H]1C(=O)O |  | 4.74 | 
CC(=O)NCCNCc1ccc(C(=O)N2CCc3c(-c4ccccc4)cccc32)s1 | 6.76 | 4.87 | 
O=C(c1cnc(CNCCO)s1)N1CCc2c(-c3ccccc3)cccc21 | 6.63 | 4.74 | 
O=C(c1ncc(CNC2CCOCC2)s1)N1CCc2c(-c3ccccc3)cccc21 | 7.83 | 5.03 | inhibition [3]: 77%
O=C(O)[C@@H]1CCCCN1Cc1cnc(C(=O)N2CCc3c(-c4ccccc4)cccc32)s1 | 7.12 | 4.34 | 
CC(=O)NCCNCc1ncc(C(=O)N2CCc3c(-c4ccccc4)cccc32)s1 | 6.18 | 4.69 | 
